According to patent US10662203B2, “Pyrido[2,3-b]indole compounds for the treatment and prophylaxis of bacterial infection” (Hoffmann-La Roche Inc., priority 2017, dated 2020):
In brackets after ≈: the same amount, converted by molar mass.

How the values were obtained:
A. baumannii (ATCC17978) = experiment: 50% growth inhibitory concentration (IC50) determination assay; assay type: cell-based; conditions: Acinetobacter baumannii, ATCC17978, A. baumannii ATCC17978; Iso-Sensitest broth; 0.098 = detection limit
How it was run: (§1)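 Each strain, inoculated at ~5×10^5 CFU/mL in Iso-Sensitest broth, faces a two-fold compound series spanning 50 to 0.097 μM final concentration. Incubation proceeds at 35±2° C, and cell growth is tracked by absorbance at λ=600 nm every 20 minutes over 16 h.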

[1] = system: K. pneumoniae (ATCC10031); experiment: as above; assay type: cell-based; conditions: Klebsiella pneumoniae, Iso-Sensitest broth, 0.098 = detection limit
How it was run: as §1

S. aureus (ATCC29213) = experiment: as above; assay type: cell-based; conditions: Staphylococcus aureus, Iso-Sensitest broth, 0.098 = detection limit
How it was run: as §1

[2] = Lyophilisation solubility assay (LYSA); assay type: physicochemical; conditions: phosphate buffer, pH 6.5, aqueous buffer, thermodynamic from solid, 0.05 M phosphate buffer, HPLC-UV
How it was run: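 Read-out is HPLC-UV of the filtered solution and its 1/10 dilution. The dried residue of a 10 mM DMSO stock was redissolved in 0.05 M pH 6.5 phosphate buffer, then stirred 1 h, shaken 2 h and held overnight. Run in duplicate.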

[3] = Cytotoxicity assay (HepG2, CellTiter-Blue cell viability); assay type: cell-based; conditions: human; HepG2 cells, 3 days treatment; "*": the detection limit; read-out: CC50
Method: The cytotoxicity of compounds of present invention was assessed by HepG2 assay. HepG2 cells (ATCC HB-8065™) were seeded into 96-well plates (1.2×10^4 cells per well) and treated with compounds for 3 days, cell viability was measured at day 3 post compound treatment using the CellTiter-Blue® Cell Viability Assay (Promega, Cat. No. G8082). 20 μL of Cell titer blue buffer were added to each well of the cells, which were incubated for 3 hours at 37° C., and the fluorescence value was measured by a plate reader (Molecular Device SpectraMax M2). The CC50 value of each compound is plotted with GraphPad Prism using four parameter logistic equation.

Row | IC50 (A. baumannii (ATCC17978)) [µM] | IC50 [1] [µM] | IC50 (S. aureus (ATCC29213)) [µM] | solubility thermodynamic [2] [µg/mL] | Structure (SMILES) | CC50 at 3 days [3] [nM]
1 | 0.164 | < 0.098 | < 0.098 | 23 (≈ 42 µM) | CNc1cc(F)c(F)c2c1[nH]c1ncc(-c3cnc4c(c3)c(=O)c(C(=O)O)cn4C)c(N3CC[C@H](N(C)C)C3)c12 [Example 1.254] | 36100
2 | 0.307 | < 0.098 | 0.232 | 20 (≈ 36 µM) | CNc1cc(F)cc2c1[nH]c1ncc(-c3cnc4c(c3)c(=O)c(C(=O)O)cn4C)c(N3CC[C@@H]4C(CCN4C)C3)c12 (stereo partly shown) [Example 1.188] | 51600
3 | 0.362 | < 0.098 | < 0.098 | 530 (≈ 875 µM) | CCN(CC)CC1CN(c2c(-c3cnc4c(c3)c(=O)c(C(=O)O)cn4C)cnc3[nH]c4c(NC)cc(F)c(F)c4c23)CCO1 (stereo not shown) [Example 1.149] | 66600
4 | 0.108 | < 0.098 | 0.108 | 152 (≈ 287 µM) | CNc1cc(F)cc2c1[nH]c1ncc(-c3cnc4c(c3)c(=O)c(C(=O)O)cn4C)c(N3CCC(N(C)C)C3)c12 (stereo not shown) [Example 1.75] | 68500
5 | 0.176 | < 0.098 | < 0.098 | 85 (≈ 151 µM) | CNc1cc(F)c(F)c2c1[nH]c1ncc(-c3cnc4c(c3)c(=O)c(C(=O)O)cn4C)c(N3CCC[C@H](N(C)C)C3)c12 [Example 3.06B] | 40200
6 | 0.297 | < 0.098 | < 0.098 | 12 (≈ 20.9 µM) | CNc1cc(F)c(F)c2c1[nH]c1ncc(-c3cnc4c(c3)c(=O)c(C(=O)O)cn4C)c(N3CCC4(CCN(C)C4)C3)c12 (stereo not shown) [Example 1.229] | 53100
7 | 0.19 |  |  | 425 (≈ 687 µM) | CNc1cc(F)c(F)c2c1[nH]c1ncc(-c3cnc4c(c3)c(=O)c(C(=O)O)cn4NCCOC)c(N3CC[C@H]4CN(C)C[C@H]43)c12 (relative stereo) [Example 5.01, 6-[4-[cis-5-methyl-2,3,3a,4,6,6a-hexahydropyrrolo[2,3-c]pyrrol-1-yl]-5,6-difluoro-8-(methylamino)-9H-pyrido[2,3-b]indol-3-yl]-1-(2-methoxyethylamino)-4-oxo-1,8-naphthyridine-3-carboxylic acid] | 43500
8 | 0.631 | < 0.098 | < 0.098 |  | CCNc1cc(F)c(F)c2c1[nH]c1ncc(-c3cnc4c(c3)c(=O)c(C(=O)O)cn4C3CCNC3)c(N(C)C)c12 (stereo not shown) [Example 1.140] | > 100000
9 | 0.199 | < 0.098 | < 0.098 |  | CNc1cc(F)c(F)c2c1[nH]c1ncc(-c3cnc4c(c3)c(=O)c(C(=O)O)cn4C)c(N3CCC4(CCCN(CCO)C4)C3)c12 (stereo not shown) [Example 1.194] | 72000
10 | 0.424 | < 0.098 | < 0.098 |  | CNc1cc(F)cc2c1[nH]c1ncc(-c3cnc4c(c3)c(=O)c(C(=O)O)cn4[C@@H](C)CO)c(N3CCOCC3)c12 [Example 1.216] | > 100000
11 | 0.336 | < 0.098 | < 0.098 |  | CNc1cc(F)c(F)c2c1[nH]c1ncc(-c3cnc4c(c3)c(=O)c(C(=O)O)cn4C)c(N3CC[C@@H](CO)C3)c12 [Example 1.165] | > 100000
12 | 0.32 | < 0.098 | < 0.098 |  | [2H]C([2H])([2H])Nc1cc(F)c(F)c2c1[nH]c1ncc(-c3cnc4c(c3)c(=O)c(C(=O)O)cn4C3CCNC3)c(N(C)C)c12 (stereo not shown) [Example 1.64] | > 100000
13 | 0.586 | < 0.098 | < 0.098 |  | CNc1cc(F)cc2c1[nH]c1ncc(-c3cnc4c(c3)c(=O)c(C(=O)O)cn4NC)c(N3CC4[C@@H](C3)OCCN4C)c12 (stereo partly shown) [Example 1.113] | > 100000
14 |  |  |  | 11 (≈ 19.1 µM) | CNc1cc(F)c(F)c2c1[nH]c1ncc(-c3cnc4c(c3)c(=O)c(C(=O)O)cn4C)c(N3CCN4CCOCC4C3)c12 (stereo not shown) [Example 1.134] | > 100000
15 | 0.437 | < 0.098 | < 0.098 |  | CNc1cc(F)c(F)c2c1[nH]c1ncc(-c3cnc4c(c3)c(=O)c(C(=O)O)cn4CC3COCCN3)c(N(C)C)c12 (stereo not shown) [Example 1.03] | 38100
16 | 0.171 | < 0.098 | < 0.098 |  | CNc1cc(F)c(F)c2c1[nH]c1ncc(-c3cnc4c(c3)c(=O)c(C(=O)O)cn4C)c(N3CC[C@H](O)C3)c12 [Example 1.163] | 28800
17 | 0.663 | < 0.098 | < 0.098 |  | CNc1cc(F)c(F)c2c1[nH]c1ncc(-c3cnc4c(c3)c(=O)c(C(=O)O)cn4CC(C)(C)O)c(N3CCOCC3)c12 [Example 1.35] | 76900
18 | 0.472 | < 0.098 | < 0.098 |  | CNc1cc(F)c(F)c2c1[nH]c1ncc(-c3cnc4c(c3)c(=O)c(C(=O)O)cn4C)c(N3CC[C@H](CO)C3)c12 [Example 1.164] | 99300
19 | 0.326 | 0.11 | < 0.098 |  | CNc1cc(F)c(F)c2c1[nH]c1ncc(-c3cnc4c(c3)c(=O)c(C(=O)O)cn4C)c(N3CCC(C)(CO)C3)c12 (stereo not shown) [Example 1.84] | 26800
20 | 0.088 | < 0.098 | < 0.098 |  | CNc1cc(F)c(Cl)c2c1[nH]c1ncc(-c3cnc4c(c3)c(=O)c(C(=O)O)cn4C)c(N3CCOCC3)c12 [Example 1.269] | 40800
21 | 0.353 | < 0.098 | < 0.098 |  | CNc1cc(F)c(F)c2c1[nH]c1ncc(-c3cnc4c(c3)c(=O)c(C(=O)O)cn4CC3CCN(C)CC3)c(N(C)C)c12 [Example 1.32] | 50100
22 | 0.472 | < 0.098 | < 0.098 |  | CNc1cc(F)cc2c1[nH]c1ncc(-c3cnc4c(c3)c(=O)c(C(=O)O)cn4C(C)CO)c(N3CCOCC3)c12 (stereo not shown) [Example 1.45] | > 100000
23 | 0.18 | < 0.098 | 0.168 |  | CNc1cc(F)cc2c1[nH]c1ncc(-c3cnc4c(c3)c(=O)c(C(=O)O)cn4NC)c(N3CC[C@H]4CCN(C)C4C3)c12 (stereo partly shown) [Example 1.212] | 33900
24 | 0.104 | < 0.098 | < 0.098 |  | CNc1cc(F)c(F)c2c1[nH]c1ncc(-c3cnc4c(c3)c(=O)c(C(=O)O)cn4C)c(N3CCC4(CCCN4C)C3)c12 (stereo not shown) [Example 1.239] | 32900
25 | 0.533 | < 0.098 | < 0.098 |  | CNc1cc(F)c(F)c2c1[nH]c1ncc(-c3cnc4c(c3)c(=O)c(C(=O)O)cn4C(C)CO)c(N3CCOCC3)c12 (stereo not shown) [Example 1.51] | > 100000
26 | 0.748 | < 0.098 | < 0.098 |  | CNc1cc(F)c(F)c2c1[nH]c1ncc(-c3cnc4c(c3)c(=O)c(C(=O)O)cn4C)c(N3C[C@H](O)[C@@H](F)C3)c12 [Example 1.82] | > 100000
27 | 0.403 | < 0.098 | < 0.098 |  | CCNc1cc(F)cc2c1[nH]c1ncc(-c3cnc4c(c3)c(=O)c(C(=O)O)cn4CC)c(-n3cc(CN)c(C(F)(F)F)n3)c12 [Example 1.15] | > 100000
28 | 0.507 | < 0.098 | < 0.098 |  | CNc1cc(F)c(F)c2c1[nH]c1ncc(-c3cnc4c(c3)c(=O)c(C(=O)O)cn4C)c(N3CCC(F)(CN)C3)c12 (stereo not shown) [Example 1.23] | > 100000
